Three compounds from paper PMC6017101, “In Silico and In Vitro Study of the Bromelain-Phytochemical Complex Inhibition of Phospholipase A2 (Pla2)” (Molecules : A Journal of Synthetic Chemistry and Natural …, 2018) can be followed below.

The assay has as its target T1, porcine group IB phospholipase A2 (pG-IB); Pla2 (Sus scrofa, UniProt P00592).
T1 construct: gene PLA2G1B; commercial enzyme (Sigma-Aldrich); no tag stated
Briefly: colorimetric phenol red assay, […] nm, lecithin hydrolysis; median-effect plot. It is filed as biochemical. Conditions: read-out: Dm (mg/mL) ^a (converted).

T1 sequence (P00592 23-146): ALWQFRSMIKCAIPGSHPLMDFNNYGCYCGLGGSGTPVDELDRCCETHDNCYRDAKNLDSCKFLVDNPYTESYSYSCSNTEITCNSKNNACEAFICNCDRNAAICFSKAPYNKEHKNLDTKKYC

Consider `C[C@H]1[C@H](C)CC[C@]2(C(=O)O[C@@H]3O[C@H](CO[C@@H]4O[C@H](CO)[C@@H](O[C@@H]5O[C@@H](C)[C@H](O)[C@@H](O)[C@H]5O)[C@H](O)[C@H]4O)[C@@H](O)[C@H](O)[C@H]3O)CC[C@]3(C)C(=CC[C@@H]4[C@@]5(C)C[C@@H](O)[C@H](O)[C@@](C)(CO)[C@@H]5CC[C@]43C)[C@H]12` [asiaticoside], for which the IC50 was 328 µM. In the case of `O=c1cc(-c2ccc(O)c(-c3c(O)cc(O)c4c(=O)cc(-c5ccc(O)cc5)oc34)c2)oc2cc(O)cc(O)c12` [amenthoflavone] it was 200 µM; in that of `C[C@@H]1CC[C@@]2(OC1)O[C@H]1C[C@H]3[C@@H]4CC=C5C[C@@H](O)CC[C@]5(C)[C@H]4CC[C@]3(C)[C@H]1[C@@H]2C` [diosgenin], 2330 µM.
